Test results: ChEMBL document CHEMBL1155378, “Design, synthesis, and evaluation of indole compounds as novel inhibitors targeting Gp41” (Bioorg Med Chem Lett, 2010)

Experiments:
[1] = Displacement of C18-Aib-lucifer yellow from HIV1 envelope glycoprotein gp41 Fe(env2.0)3 by fluorescence assay; parameters: species or system Human immunodeficiency virus 1
[2] = Inhibition of HIV1 envelope glycoprotein 41-mediated membrane fusion between virus-transfected human HL2/3 cells and human TZM-bl cells after 6 hrs by fluorescence-based cell-cell fusion assay; parameters: species or system Human immunodeficiency virus 1
[3] = Cytotoxicity against human HL2/3 cells after 24 hrs by XTT proliferation assay; type: cell-based; conditions: hl2/3, 24 h
[4] = Inhibition of HIV1 envelope glycoprotein gp41; parameters: species or system Human immunodeficiency virus 1
[5] = tested on: Human immunodeficiency virus 1; experiment: Inhibition of HIV1 envelope glycoprotein gp41 by cell-cell fusion assay

## O=C(O)c1cccc(Cc2ccc(F)cc2)c1
[1]
  Ki: 548 µM
[2]
  IC50: 560 µM

## O=C(O)c1cccc(Cc2ccc3ccn(-c4cccc(C(=O)O)c4)c3c2)c1
[1]
  Ki: 107 µM
[3]
  CC50: > 400 µM

## COc1cccc(-n2ccc3ccc(Cc4cccc(C(=O)O)c4)cc32)c1
[3]
  CC50: > 100 µM

## COc1ccc(Cn2ccc3ccc(Cc4cccc(C(=O)O)c4)cc32)cc1
[3]
  CC50: 100 µM

## COc1ccc(S(=O)(=O)O)cc1/N=N/c1c(S(=O)(=O)O)cc2cc(Nc3nc(Nc4ccccc4)nc(Nc4cc(C)c(/N=N/c5cc(S(=O)(=O)O)cc6cc(S(=O)(=O)O)cc(O)c56)cc4OC)n3)ccc2c1O
[4]
  IC50: 620 nM
[5]
  INH: 4.2 µM

## O=C(O)c1cccc(Cc2ccc3ccn(Cn4ccc5ccc(Cc6cccc(C(=O)O)c6)cc54)c3c2)c1
[3]
  CC50: 80 µM

## Cc1ccc(C2=NNC3C=CC4C(C(F)(F)F)=CC(C(F)(F)F)=NC4N23)cc1 (stereo not given)
[2]
  IC50: 18 µM
